From PubChem BioAssay AID2060510 (Molecular Pharmacology Branch, DTP, NCI, 2025)

System: 439559-082-T-J2-PDC spheroids viability
Experiment: Anticancer human tumor 439559-082-T-J2-PDC patient-derived colon adenocarcinoma cell line growth inhibition [GQUAD]
Conditions: for IC50: curve of first compound; for viability, T/C: stronger effect = lower value
In short: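 Tumor cells were grown as complex spheroids with HUVEC endothelial cells and mesenchymal stem cells as stroma. G-quadruplex stabilizers were combined with targeted agents over half-log dilutions from near the clinical Cmax, or from 10 microM.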

[1] = second compound 0.0316 µM, first compound 0.0316 µM
[2] = second compound 0.0316 µM, first compound 0.1 µM
[3] = second compound 0.0316 µM, first compound 0.316 µM
[4] = second compound 0.0316 µM, first compound 1 µM
[5] = second compound 0.0316 µM, first compound 3.16 µM
[6] = second compound 0.0316 µM, first compound 10 µM
[7] = second compound 0.1 µM, first compound 0.0316 µM
[8] = second compound 0.1 µM, first compound 0.1 µM
[9] = second compound 0.1 µM, first compound 0.316 µM
[10] = second compound 0.1 µM, first compound 1 µM
[11] = second compound 0.1 µM, first compound 3.16 µM
[12] = second compound 0.1 µM, first compound 10 µM
[13] = second compound 0.316 µM, first compound 0.0316 µM
[14] = second compound 0.316 µM, first compound 0.1 µM
[15] = second compound 0.316 µM, first compound 0.316 µM
[16] = second compound 0.316 µM, first compound 1 µM
[17] = second compound 0.316 µM, first compound 3.16 µM
[18] = second compound 0.316 µM, first compound 10 µM
[19] = second compound 1 µM, first compound 0.0316 µM
[20] = second compound 1 µM, first compound 0.1 µM
[21] = second compound 1 µM, first compound 0.316 µM
[22] = second compound 1 µM, first compound 1 µM
[23] = second compound 1 µM, first compound 3.16 µM
[24] = second compound 1 µM, first compound 10 µM
[25] = second compound 3.16 µM, first compound 0.0316 µM
[26] = second compound 3.16 µM, first compound 0.1 µM
[27] = second compound 3.16 µM, first compound 0.316 µM
[28] = second compound 3.16 µM, first compound 1 µM
[29] = second compound 3.16 µM, first compound 3.16 µM
[30] = second compound 3.16 µM, first compound 10 µM
[31] = second compound 10 µM, first compound 0.0316 µM
[32] = second compound 10 µM, first compound 0.1 µM
[33] = second compound 10 µM, first compound 0.316 µM
[34] = second compound 10 µM, first compound 1 µM
[35] = second compound 10 µM, first compound 3.16 µM
[36] = second compound 10 µM, first compound 10 µM
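Also: spheroids exposed to the agents for 7 days before readout.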
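For viability, T/C in this document: percent of luminescence signal in DMSO vehicle wells taken as 100% viability.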

COc1cc(C2c3cc4c(cc3C(OC3OC5COC(C)OC5C(O)C3O)C3COC(=O)C23)OCO4)cc(OC)c1O (stereo unspecified) + Cc1[nH]c2ccc(F)cc2c1-c1nc2c3cccnc3c3ncccc3c2[nH]1
IC50 (second compound 0.0316 µM): > 10 µM
IC50 (second compound 0.1 µM): > 10 µM
IC50 (second compound 0.316 µM): > 10 µM
IC50 (second compound 1 µM): > 10 µM
IC50 (second compound 3.16 µM): > 10 µM
IC50 (second compound 10 µM): > 10 µM
viability, T/C [1]: 98.1%
viability, T/C [2]: 99.7%
viability, T/C [3]: 97.9%
viability, T/C [4]: 87.8%
viability, T/C [5]: 86.5%
viability, T/C [6]: 66.1%
viability, T/C [7]: 102%
viability, T/C [8]: 98.2%
viability, T/C [9]: 97.5%
viability, T/C [10]: 87.1%
viability, T/C [11]: 96.9%
viability, T/C [12]: 64.9%
viability, T/C [13]: 108%
viability, T/C [14]: 101%
viability, T/C [15]: 103%
viability, T/C [16]: 94.2%
viability, T/C [17]: 85.6%
viability, T/C [18]: 65.3%
viability, T/C [19]: 98.2%
viability, T/C [20]: 87.8%
viability, T/C [21]: 89.4%
viability, T/C [22]: 83.8%
viability, T/C [23]: 86.7%
viability, T/C [24]: 58.9%
viability, T/C [25]: 76.5%
viability, T/C [26]: 85.2%
viability, T/C [27]: 84.1%
viability, T/C [28]: 73.5%
viability, T/C [29]: 79.9%
viability, T/C [30]: 56.7%
viability, T/C [31]: 88.5%
viability, T/C [32]: 85.3%
viability, T/C [33]: 83.8%
viability, T/C [34]: 90.6%
viability, T/C [35]: 78.5%
viability, T/C [36]: 57.2%

COc1cccc2c1C(=O)c1c(O)c3c(c(O)c1C2=O)CC(O)(C(=O)CO)CC3OC1CC(N)C(O)C(C)O1 (stereo unspecified) + Cc1[nH]c2ccc(F)cc2c1-c1nc2c3cccnc3c3ncccc3c2[nH]1
IC50 (second compound 0.0316 µM): > 10 µM
IC50 (second compound 0.1 µM): > 10 µM
IC50 (second compound 0.316 µM): > 10 µM
IC50 (second compound 1 µM): > 10 µM
IC50 (second compound 3.16 µM): 9.82 µM
IC50 (second compound 10 µM): 5.25 µM
viability, T/C [1]: 98.5%
viability, T/C [2]: 100%
viability, T/C [3]: 96.2%
viability, T/C [4]: 82.1%
viability, T/C [5]: 61.5%
viability, T/C [6]: 54.2%
viability, T/C [7]: 107%
viability, T/C [8]: 99%
viability, T/C [9]: 89.1%
viability, T/C [10]: 87.5%
viability, T/C [11]: 69.5%
viability, T/C [12]: 54.1%
viability, T/C [13]: 98.9%
viability, T/C [14]: 95.3%
viability, T/C [15]: 85.9%
viability, T/C [16]: 89.2%
viability, T/C [17]: 62.7%
viability, T/C [18]: 50.8%
viability, T/C [19]: 87.9%
viability, T/C [20]: 87%
viability, T/C [21]: 82.1%
viability, T/C [22]: 83.2%
viability, T/C [23]: 67.3%
viability, T/C [24]: 56.2%
viability, T/C [25]: 80.4%
viability, T/C [26]: 75%
viability, T/C [27]: 85.2%
viability, T/C [28]: 64.2%
viability, T/C [29]: 63.3%
viability, T/C [30]: 49.7%
viability, T/C [31]: 92.3%
viability, T/C [32]: 80.3%
viability, T/C [33]: 69.8%
viability, T/C [34]: 68.2%
viability, T/C [35]: 53.2%
viability, T/C [36]: 43.9%

O=c1[nH]cc(F)c(=O)[nH]1 + Cc1[nH]c2ccc(F)cc2c1-c1nc2c3cccnc3c3ncccc3c2[nH]1
IC50 (second compound 0.0316 µM): > 10 µM
IC50 (second compound 0.1 µM): > 10 µM
IC50 (second compound 0.316 µM): > 10 µM
IC50 (second compound 1 µM): > 10 µM
IC50 (second compound 3.16 µM): > 10 µM
IC50 (second compound 10 µM): > 10 µM
viability, T/C [1]: 90.7%
viability, T/C [2]: 95.5%
viability, T/C [3]: 87.7%
viability, T/C [4]: 78.9%
viability, T/C [5]: 76.8%
viability, T/C [6]: 82.3%
viability, T/C [7]: 101%
viability, T/C [8]: 89.8%
viability, T/C [9]: 83.3%
viability, T/C [10]: 75.1%
viability, T/C [11]: 73.3%
viability, T/C [12]: 83.4%
viability, T/C [13]: 101%
viability, T/C [14]: 99.2%
viability, T/C [15]: 83.7%
viability, T/C [16]: 74.8%
viability, T/C [17]: 79.5%
viability, T/C [18]: 76.3%
viability, T/C [19]: 91.9%
viability, T/C [20]: 96.3%
viability, T/C [21]: 79.1%
viability, T/C [22]: 72.8%
viability, T/C [23]: 70.6%
viability, T/C [24]: 72.3%
viability, T/C [25]: 103%
viability, T/C [26]: 88.8%
viability, T/C [27]: 76.5%
viability, T/C [28]: 65%
viability, T/C [29]: 62.5%
viability, T/C [30]: 59.1%
viability, T/C [31]: 82.2%
viability, T/C [32]: 81.9%
viability, T/C [33]: 67.9%
viability, T/C [34]: 59.3%
viability, T/C [35]: 57.5%
viability, T/C [36]: 59.8%
